Measured values published in patent US10533161B2, “NADPH oxidase proteins” (Universite Grenoble Alpes, priority 2014, dated 2020).
“Also recorded” adds a separate entry of the source.

Columns and labels:
eukaryotic NOX = conditions: commercial molecules targeting the eukaryotic NOX; cited from earlier work
SpNox = experiment: NADPH oxidase activity of SpNox by colorimetry (NBT reduction, 96-well plate); assay type: biochemical, Streptococcus pneumoniae; conditions: absorbance at 560 nm, 5 concentrations 0.01-100 μM (DPI 0.005-50 μM), triplicate
Procedure: The oxidase activity is determined by measuring the kinetics of reduction of NBT by the O2.^− ions, by monitoring the increase in absorbance at 560 nm (molar extinction coefficient of NBT: ε560=30 000 mM^−1.cm^−1). It is also possible to use a wavelength of 550 nm SpNox is incubated with a reaction mixture containing the molecule to be tested, NBT, FAD and the protein storage buffer for 5 to 20 min at 25° C. The reaction is then started by adding NADPH.
The NADPH oxidase activity is then quantified at the end point by determining the intensity of the coloration compared to a positive control. The positive control is carried out with the SpNox protein alone, without the molecule to be tested.
The compounds present in each well of the plate are, as final concentration: • 0.1 μg of SpNox; • 2 μM of FAD; • 125 μM of NBT; • 150 μM NADPH; • Molecule A; • SpNox storage buffer q.s. 200 μL.
All the experiments were carried out in triplicate and each molecule was tested at 5 different concentrations. The concentration range is deliberately wide so as to be able to include the possible IC50 values of each molecule. The concentrations selected are: 0.01-0.1-1-10-100 μM.

Row | Compound | Property (NADPH oxidase activity of the eukaryotic NOX) (eukaryotic NOX) | Effect on the NADPH oxidase activity of SpNox (SpNox)
1 | Oc1cc(O)c2c(c1)O[C@H](c1ccc(O)c(O)c1)[C@@H](O)C2 [Catechin] | Inhibitor | inhibitors of SpNox
2 | CCCCC/C=C\C/C=C\C/C=C\C/C=C\CCCC(=O)O [Arachidonic acid (AA), Arachidonic acid] | Activator | stimulates the production of superoxide; also recorded: activator of SpNox
3 | c1ccc2c(c1)[IH]c1ccccc1-2 [DPI, diphenyleneiodonium chloride] | Inhibitor | inhibits the reaction; also recorded: inhibitory effect; also recorded: inhibitors of SpNox
4 | O=C(O[C@@H]1Cc2c(O)cc(O)cc2O[C@@H]1c1ccc(O)c(O)c1)c1cc(O)c(O)c(O)c1 [Epicatechin gallate] | Inhibitor | inhibitors of SpNox
5 | CC1=C(O)C(=O)C=C2C1=CC=C1[C@@]2(C)CC[C@@]2(C)[C@@H]3C[C@](C)(C(=O)O)CC[C@]3(C)CC[C@]12C [Celastrol] | Inhibitor | inhibitors of SpNox
6 | Cc1ccccc1-n1sc2cc(F)ccc2c1=O [Thr101] | Inhibitor | inhibitors of SpNox
7 | O=c1c2ccccc2[se]n1-c1ccccc1 [Ebselen] | Inhibitor | inhibitors of SpNox
8 | c1ccc(Cn2nnc3c(Sc4nc5ccccc5o4)ncnc32)cc1 [VAS2870] | Inhibitor | 
